{"source": "paper PMC10983001", "about": "“Development of Cytotoxic GW7604-Zeise’s Salt Conjugates as Multitarget Compounds with Selectivity for Estrogen Receptor- Positive Tumor Cells” (Journal of Medicinal Chemistry, 2024)", "key": {"human recombinant COX-1": {"target": "T1, human recombinant COX-1 (Homo sapiens, UniProt P23219)", "T1 construct": "purchased Cayman Chemicals", "T1 sequence (P23219 24-599)": "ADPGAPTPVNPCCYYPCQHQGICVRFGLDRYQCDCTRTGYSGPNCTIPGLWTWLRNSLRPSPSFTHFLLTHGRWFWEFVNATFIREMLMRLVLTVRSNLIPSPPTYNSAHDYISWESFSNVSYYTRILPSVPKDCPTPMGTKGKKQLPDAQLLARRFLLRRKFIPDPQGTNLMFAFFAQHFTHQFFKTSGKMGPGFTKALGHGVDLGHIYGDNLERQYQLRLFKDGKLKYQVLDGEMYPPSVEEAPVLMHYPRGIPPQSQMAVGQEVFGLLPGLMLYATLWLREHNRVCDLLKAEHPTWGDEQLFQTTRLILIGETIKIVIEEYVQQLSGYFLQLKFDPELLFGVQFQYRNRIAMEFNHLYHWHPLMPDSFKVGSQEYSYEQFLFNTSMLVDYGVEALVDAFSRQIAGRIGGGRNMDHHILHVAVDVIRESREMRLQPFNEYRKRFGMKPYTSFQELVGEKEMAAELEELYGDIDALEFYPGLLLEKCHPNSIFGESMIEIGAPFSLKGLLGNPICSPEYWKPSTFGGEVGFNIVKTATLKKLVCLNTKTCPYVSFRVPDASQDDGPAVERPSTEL", "format": "biochemical", "details": "20 μM, incubation 10 min", "experimental": "(§1) COX-1/2 inhibition was evaluated in an established assay on isolated isoenzymes. After incubation with the drugs (concentration: 20 μM) for 10 min, the remaining COX activity was measured by an enzyme-linked immunosorbent assay (ELISA).\n(§2) The incubation time of the compounds with the respective isoenzymes was exactly 10 min. The results are presented as the mean ± SEM of three independent experiments, with two replicates of each experiment. […] Graphs were drawn using GraphPad Prism 8.0."}, "human recombinant COX-2": {"target": "T2, human recombinant COX-2 (Homo sapiens, UniProt P35354)", "T2 construct": "purchased Cayman Chemicals", "T2 sequence (P35354 18-604)": "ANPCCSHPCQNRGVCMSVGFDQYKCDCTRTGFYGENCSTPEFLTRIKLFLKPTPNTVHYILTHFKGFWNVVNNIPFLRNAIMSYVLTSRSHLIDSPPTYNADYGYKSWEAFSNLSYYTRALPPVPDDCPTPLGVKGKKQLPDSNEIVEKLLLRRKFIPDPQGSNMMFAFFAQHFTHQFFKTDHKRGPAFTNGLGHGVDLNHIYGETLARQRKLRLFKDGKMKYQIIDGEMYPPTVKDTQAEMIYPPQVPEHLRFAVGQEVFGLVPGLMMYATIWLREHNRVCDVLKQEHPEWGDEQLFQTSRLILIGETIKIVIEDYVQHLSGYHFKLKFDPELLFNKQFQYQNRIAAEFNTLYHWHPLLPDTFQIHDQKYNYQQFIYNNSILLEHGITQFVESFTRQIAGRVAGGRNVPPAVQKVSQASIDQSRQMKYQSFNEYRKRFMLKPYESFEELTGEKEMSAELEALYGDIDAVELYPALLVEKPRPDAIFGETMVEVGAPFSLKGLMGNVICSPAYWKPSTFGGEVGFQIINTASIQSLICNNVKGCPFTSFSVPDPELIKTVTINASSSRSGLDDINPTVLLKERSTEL", "format": "biochemical", "details": "20 μM, incubation 10 min", "experimental": "as §1, §2"}, "MCF-7 cells": {"system": "MCF-7 cells", "test": "MTT assay of metabolic activity, MCF-7", "format": "cell-based, human", "details": "72 h, MTT; read-out: IC50 MCF-7", "experimental": "(§3) The GW7604-Alk-PtCl3 complexes (with exclusion of GW7604-Prop-PtCl3) were investigated for cytotoxic effects in SKBr3 (ER-negative, COX-2-positive, Figure 6), MCF-7 (ERα-positive, COX-negative, Figure 6), and noncancerous TSA-201 (human embryonal kidney) cells at concentrations of 10–30 μM using an established MTT (3-(4,5-dimethylthiazol-2-yl)-2,5-diphenyltetrazolium bromide) assay.[60],[69]\n(§4) After incubation for 72 h, the amounts of surviving, metabolically active cells were quantified based on their ability to transform the water-soluble yellow dye MTT to a purple formazan, which can be analyzed by UV–vis spectroscopy.\n(§5) The exponentially growing cells were seeded at a density of 1750 (MCF-7), 2000 (SKBr3), and 1250 (TSA-201) cells/well into clear flat-bottom 96-well plates in triplicate. Following 24 h of incubation at 37 °C in a humidified atmosphere (5% CO2/95% air), the compounds [freshly prepared stock solutions in DMF, diluted with DMEM to the desired concentration (final DMF concentration of 0.1% (v/v))] were added to reach the indicated concentrations. After another 72 h of incubation, the cellular metabolic activity was measured employing an MTT assay. By adding predissolved MTT reagent in PBS at a final concentration of 0.5 mg/mL, the metabolic activity can be determined via an enzymatic conversion to a purple formazan salt. After 3 h, the medium was aspirated, and 200 μL of DMSO was added to dissolve the formed formazan crystals. The absorbance was measured at 570 and 690 nm (turbidity assessment) using an EnSpire plate reader (PerkinElmer, Waltham, MA, USA). Solvent-treated cells without a compound served as the positive control. Metabolic activity was calculated by the following equation [drawing 1]"}, "SKBr3 cells": {"system": "SKBr3 cells", "test": "MTT assay of metabolic activity, SKBr3", "format": "cell-based, human", "details": "72 h, MTT", "experimental": "as §3, §4, §5"}, "TSA-201 cells": {"system": "TSA-201 cells", "test": "MTT assay of metabolic activity, noncancerous TSA-201", "format": "cell-based, human", "details": "72 h, MTT; read-out: IC50 TSA-210", "experimental": "as §3, §4, §5"}, "[1]": {"test": "Stability in organic solutions (1H NMR)", "format": "physicochemical", "details": "DMSO-d6, measured after 5 min / immediately after dissolution", "experimental": "Furthermore, it needs to be clarified whether organic solvent molecules are capable of ligand exchange reactions at the PtCl3 unit and form corresponding reaction/degradation products of the GW7604-Alk-PtCl3 complexes. Therefore, ^1H NMR experiments were performed with noncoordinating [e.g., acetone-d6, methanol-d4] and coordinating [e.g., acetonitrile-d3 , DMF-d7, dimethyl sulfoxide-d6 (DMSO-d6)] solvents. It should further be assessed whether the solvents are suitable for preparing stock solutions for structural characterization or in vitro testing.\nThe solutions (concentrations of 4.5–5.0 mM) were stored in NMR tubes at room temperature (rt) after being purged with argon."}, "COX-1": {"system": "COX-1", "parameters": "method as in PMID 29848978", "details": "10 μM, incubation time 10 min; cited from earlier work"}, "COX-2": {"system": "COX-2", "parameters": "method as in PMID 29848978", "details": "comparable concentration (10 μM); cited from earlier work"}, "tumor cells": {"system": "tumor cells", "parameters": "method as in PMID 25604474", "details": "cited from earlier work"}}, "data": [{"smiles": "C=C.O.[Cl][Pt-]([Cl])[Cl].[K+]", "note": "[Zeise’s salt, K[PtCl3(C2H4)]]", "values": [{"measurement": "% COX-1 inhibition", "setting": "human recombinant COX-1", "value": 83, "unit": "%"}, {"measurement": "% COX-2 inhibition", "setting": "human recombinant COX-2", "value": 0, "unit": "%"}, {"measurement": "IC50", "setting": "MCF-7 cells", "value": "> 20", "unit": "µM"}, {"measurement": "IC50", "setting": "SKBr3 cells", "value": "> 20", "unit": "µM"}, {"measurement": "IC50", "setting": "TSA-201 cells", "value": "> 20", "unit": "µM"}, {"measurement": "stability in DMSO-d6", "setting": "[1]", "value": "gas bubbling occurred from the released ethylene"}, {"measurement": "COX-1 inhibition", "setting": "COX-1", "value": 100, "unit": "%"}, {"measurement": "COX-2 inhibition", "setting": "COX-2", "value": "inactive"}, {"measurement": "cytotoxicity against tumor cells in vitro", "setting": "tumor cells", "value": "no cytotoxicity"}]}]}
